Data reported in the NIST ThermoML archive (doi:10.1021/je049701s).

Conditions: Liquid; for mass density: 293.1 K, 101.33 kPa; for vapor or sublimation pressure: Ebulliometric method (Recirculating still)

Cc1ccccc1C [1,2-dimethylbenzene]
Conditions	Normal boiling temperature [°C]	mass density [kg/m3]	vapor or sublimation pressure [kPa]
396.73 K	–	–	55
399.52 K	–	–	60
400.66 K	–	–	62.13
404.71 K	–	–	70
407.05 K	–	–	75
409.44 K	–	–	80.33
411.44 K	–	–	85
413.5 K	–	–	90
415.44 K	–	–	95
418.23 K	–	–	102.5
427 K	–	–	129.3
Vibrating tube method	–	879.8	–
ebulliometry	144.40	–	–

Cc1cccc(C)c1 [1,3-dimethylbenzene]
Conditions	mass density [kg/m3]	vapor or sublimation pressure [kPa]
–	864.2	–
362.45 K	–	21.82
366.31 K	–	25
371.49 K	–	29.94
376.31 K	–	35
380.81 K	–	40.36
384.3 K	–	45
387.84 K	–	50
389.84 K	–	53.54
393.34 K	–	60
397.71 K	–	67.97
400.96 K	–	75
403.25 K	–	80
406.5 K	–	87.74
407.5 K	–	90
409.4 K	–	95
415.54 K	–	111.8
423.34 K	–	137.3

Cc1ccc(C)cc1 [1,4-dimethylbenzene]
Conditions	mass density [kg/m3]	vapor or sublimation pressure [kPa]
–	861.2	–
389.8 K	–	53.26
390.85 K	–	55
393.61 K	–	60
398.72 K	–	70
401.06 K	–	75
403.29 K	–	80
405.37 K	–	84.84
409.38 K	–	95
420.93 K	–	129.7

CCc1ccccc1 [ethylbenzene]
Conditions	mass density [kg/m3]	vapor or sublimation pressure [kPa]
–	867.1	–
385.7 K	–	50
387.75 K	–	53.37
391.51 K	–	60
394.15 K	–	65
397.49 K	–	71.87
398.93 K	–	75
401.16 K	–	80
403.27 K	–	85
405.26 K	–	90
407.14 K	–	95
412.49 K	–	110.02
417 K	–	124.3
